Experimental data from US20250302306A1, “TUMOR TARGETING PROBE FOR IMAGE GUIDED SURGICAL METHODS” (priority 2021, published 2025).

Key:
TNBC PDX tumors [1] = assay: Tumor recurrence follow-up after image-guided surgery in PDX model; assay type: in vivo, NSG mice
Procedure: Each agent was injected i.v. (tail vein) with the corresponding compound at the equivalent of ICG-p28 0.5 mg/kg-b.w. Twenty-four hours after injection, all surgical procedures were started under sterile conditions. Following anesthesia administration, the PDE imaging system was used to monitor NIR fluorescence throughout the entire surgical procedure. Tumors with a 2-mm safety margin and the surrounding mammary tissues at the 6 and 12 o'clock positions were removed in real time under guidance of the PDE imaging system. […] Following tumor excision, the skin incisions were closed using a nylon suture, and the mice were returned to their cages. After tumor resection, the mice were kept in their cages for an additional four weeks and monitored for tumor recurrence. Tumor recurrence was monitored by palpitation of the surgical area. Four weeks after surgery, the mice were evaluated to determine whether any of the tumors had recurred due to remnant positive margins at the resection site.

[2] = tested on: MDA-MB-231 human breast cancer tumors; assay: In vivo kinetic analysis: tumor/normal tissue NIR signal ratio (TBR); parameters: species or system athymic mice
Procedure: Since fluorescent imaging techniques rely on the concentration of each contrast agent, the optimum dose range for ICG-p28 in mice with MDA-MB-231 human breast cancer tumors was determined with the PDE unit. Each mouse was injected i.v. with ICG-p28 or ICG alone at 0.2-1.0 mg/kg (˜50 to 250 nM). The mice were imaged at various time points (6-72 hr), and the ratio of the NIR signal intensity of the tumor tissue and normal tissue (thigh) was calculated.
ICG-p28 or ICG alone was injected intravenously (i.v.) (tail vein) at 0.2, 0.5, or 1 mg/kg-b.w. Animals were imaged using an Odyssey scanner (LI-COR Biosciences) at 6-72 hr post i.v. administration. The tumor background ratio (TBR) was determined using ImageJ software (National Institutes of Health), where a region of interest (ROI) was drawn over the whole tumor and a background ROI was drawn over adjacent tissue. An ROI was manually generated around each tumor (800 nm channel).

TNBC PDX tumors [3] = assay: Histological analysis (H&E, Ki-67) of tumor margin samples; assay type: in vivo, NSG mice; conditions: H&E and Ki67 staining of margin samples
Procedure: We next performed traditional histological analyses with H&E and proliferative marker Ki67 staining on the set of tumor margin samples that were used for the Alu PCR assays.
Resected tissues were placed in containers prefilled with buffered 3.7% formalin (Anatech) and fixed for 24 hr. Formalin was replaced with 70% ethanol following fixation. Samples were paraffin-embedded, and blocks were cut into 4 μm-thick sections and mounted onto slides. H&E- and Ki-67-stained slides were analyzed by a pathologist blinded to the experimental groups and surgical resection results. The pathologist was responsible for determining a tumor's presence, margin status, and general characteristics of resected tissues.

[4] = ICG as used in clinical practice; cited from earlier work
[5] = tested on: MDA-MB-231 or IOWA-IT orthotopic MFP xenograft tumors; assay: Intraoperative imaging of orthotopic xenografts, tumor recurrence follow-up
[6] = tested on: multiple breast cancer animal models
TNBC PDX tumors [7] = assay: Detection of residual cancer cells in the tumor margin by huAlu PCR; assay type: in vivo, NSG mice; conditions: equivalent of ICG-p28 0.5 mg/kg i.v., margins at 6 and 12 o'clock
Procedure: During image-guided surgery, tumors with a 2-mm safety margin and the surrounding mammary tissues at the 6 and 12 o'clock positions were removed in real time under guidance of the PDE imaging system (FIG. 6A). These samples were collected to undergo huAlu PCR as well as traditional histological analyses.
Each agent was injected i.v. (tail vein) with the corresponding compound at the equivalent of ICG-p28 0.5 mg/kg-b.w. Twenty-four hours after injection, all surgical procedures were started under sterile conditions. Following anesthesia administration, the PDE imaging system was used to monitor NIR fluorescence throughout the entire surgical procedure. […] After tumor resection, the mice were kept in their cages for an additional four weeks and monitored for tumor recurrence. Tumor recurrence was monitored by palpitation of the surgical area. Four weeks after surgery, the mice were evaluated to determine whether any of the tumors had recurred due to remnant positive margins at the resection site.
A quantitative analysis using human-specific Alu sequence (huAlu) was performed on samples collected from the margins. […] We standardized the quantitative detection of huAlu in resected tumors and surrounding margin tissues according to previously published methods. […] The mean±SD values were calculated.

MDA-MB-231-iRFP tumors = assay: Tumor margin assessment: colocalization with tumor marker iRFP, ex vivo Odyssey scan; assay type: in vivo, athymic mice; conditions: 0.5 mg/kg i.v., 24 hr
Procedure: In FIG. 3B, Athymic mice bearing MDA-MB-231-iRFP tumors were injected i.v. with either ICG-p28 or ICG alone at 0.5 mg/kg. Twenty-four hours after injection, representative ex vivo images of the tumour and surrounding soft tissues for the ICG-p28 group (top row) and the ICG alone group (bottom row) were taken with an Odyssey scanner. The dotted line in the images indicates the outer edge of the soft tissue. iRFP (red: 700 nm); ICG-p28 or ICG (green: 800 nm); and colocalization (yellow-orange). In FIG. 3C, Concordance rate of the fluorescent signal in each group [the ICG-p28 group (n=10) and the ICG alone group (n=5)]; **: P<0.01.
ICG-p28 or ICG alone at 0.5 mg/kg was injected i.v. into athymic mice inoculated with MDA-MB-231-iRFP cells; 24 hr later, the xenografted tumors and surrounding tissues were removed.
MDA-MB-231-iRFP cells (1.0×10^6 cells in 0.1 ml PBS) were inoculated s.c. into the right back of mice. Once mice developed tumors (˜200 mm^3), they were injected i.v. with ICG-p28 or ICG at 0.5 mg/kg-b.w. Twenty-four hours after injection, tumors and the surrounding tissue were resected. Specimens were imaged ex vivo with an Odyssey scanner with the 700 nm channel for iRFP and the 800 nm channel for ICG-p28 or ICG alone. The area measurements were performed using ImageJ. The mean±SD values were calculated.

[8] = tested on: advanced solid tumors; recurrent and refractory CNS tumors; conditions: human, in vivo; cited from earlier work

CC1(C)C(/C=C/C=C/C=C/C=C2\N(CCCCS(=O)(=O)O)c3ccc4ccccc4c3C2(C)C)=[N+](CCCCS(=O)(=O)[O-])c2ccc3ccccc3c21 [ICG alone, indocyanine green]
tumor recurrence rate for the surgical site (TNBC PDX tumors [1]; four weeks after image-guided surgery): 50.0% | average volume of the recurrent tumors (TNBC PDX tumors [1]; four weeks after surgical resection): 1,952 mm^3 | tumor/normal tissue ratio of NIR signal intensity ([2]; 0.2-1.0 mg/kg i.v., 24 hr, tumor vs thigh): ~1 | TBR ([2]; ICG alone, tumor site not distinguishable): ~1.1 | positive margin rate (TNBC PDX tumors [3]): 19% | half-life [4]: 2 to 4 min | adverse events related to administration during tumor removal ([5]; 0.5 mg/kg i.v.): no apparent adverse events | tumor recurrence at the surgical sites ([5]; 0.5 mg/kg i.v., four weeks after tumor resection): 25.0% | average volume of the recurrent tumors ([5]; four weeks after tumor resection): 423 mm3 | tumor recurrence rate overall ([6]; multiple models combined, N of 24): 33% | average recurrent tumor volume overall ([6]; multiple subtypes of breast cancer combined): 1,188 mm^3 | log (huAlu DNA/mGAPDH DNA) in surrounding tissues (TNBC PDX tumors [7]): −0.9 | concordance rate of 700 and 800 nm NIR signals (MDA-MB-231-iRFP tumors): 12%

p28: peptide derived from Pseudomonas aeruginosa azurin, amino acids 50-77 (SEQ ID NO: 5)
adverse effects, toxicity or immunogenicity [8]: no significant adverse effects, toxicity or immunogenicity
